# Molecular target: T1, Full length human recombinant HDAC8 protein (Homo sapiens, UniProt Q9BY41)
# T1 construct: Full length human recombinant HDAC8 protein was expressed in baculoviral system; made in house
# T1 sequence (Q9BY41 1-377): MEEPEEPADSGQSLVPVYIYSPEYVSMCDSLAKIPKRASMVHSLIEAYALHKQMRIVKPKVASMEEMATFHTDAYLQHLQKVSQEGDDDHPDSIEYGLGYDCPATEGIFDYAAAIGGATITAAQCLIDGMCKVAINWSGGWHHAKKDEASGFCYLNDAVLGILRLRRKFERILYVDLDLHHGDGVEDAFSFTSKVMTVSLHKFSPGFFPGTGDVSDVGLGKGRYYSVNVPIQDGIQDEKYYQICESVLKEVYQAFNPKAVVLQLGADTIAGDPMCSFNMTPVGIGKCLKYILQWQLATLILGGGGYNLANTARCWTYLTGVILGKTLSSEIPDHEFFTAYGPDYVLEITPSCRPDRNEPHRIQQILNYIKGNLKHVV
# Test: In vitro histone deacetylase assay: enzymatic HDAC8 assay, electrophoretic mobility shift
# Assay type: biochemical
# Conditions: substrate RHKK(Ac)-NH2, 1 nM enzyme, compounds listed under IC50 range headings
# Method in brief: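 Readout was microfluidic mobility-shift separation of deacetylated product from fluorescent RHKK(Ac)-NH2 substrate (2 µM), after reaction with 1 nM recombinant full-length human HDAC8 at 25 °C, pH 7.5, stopped with SDS. Twelve 3-fold-spaced concentrations tested; product/sum ratios normalized to controls and fitted with a 4-parameter model for IC50.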
row,Compound,IC50 [µM]
1,"COc1cncc(CN2CCN(c3ccccc3/C=C/C(=O)NO)CC2)c1 [Example I-169, (E)-N-hydroxy-3-(2-(4-((5-methoxypyridin-3-yl)methyl)piperazin-1-yl)phenyl)acrylamide]",< 1
2,"O=C(/C=C/c1ccccc1N1CCN(Cc2cccc(C(F)(F)F)c2)CC1)NO [Example I-171, (E)-N-hydroxy-3-(2-(4-(3-(trifluoromethyl)benzyl)piperazin-1-yl)phenyl)acrylamide]",< 1
3,"COc1ccc(CN2CCN(c3ccccc3/C=C/C(=O)NO)CC2)cc1 [Example I-172, (E)-N-hydroxy-3-(2-(4-(4-methoxybenzyl)piperazin-1-yl)phenyl)acrylamide]",< 1
4,"O=C(/C=C/c1ccccc1N1CCN(Cc2ccc3c(c2)OC(F)(F)O3)CC1)NO [Example I-173, (E)-3-(2-(4-((2,2-difluorobenzo[d][1,3]dioxol-5-yl)methyl)piperazin-1-yl)phenyl)-N-hydroxyacrylamide]",< 1
5,"O=C(/C=C/c1ccccc1N1CCN(Cc2ccccc2C(F)(F)F)CC1)NO [Example I-174, (E)-N-hydroxy-3-(2-(4-(2-(trifluoromethyl)benzyl)piperazin-1-yl)phenyl)acrylamide]",< 1
6,"O=C(/C=C/c1ccccc1N1CCN(Cc2cc3c(cc2Cl)OCO3)CC1)NO [Example I-175, (E)-3-(2-(4-((6-chlorobenzo[d][1,3]dioxol-5-yl)methyl)piperazin-1-yl)phenyl)-N-hydroxyacrylamide]",< 1
7,"O=C(/C=C/c1ccccc1N1CCN(Cc2ccccc2OC(F)F)CC1)NO [Example I-176, (E)-3-(2-(4-(2-(difluoromethoxy)benzyl)piperazin-1-yl)phenyl)-N-hydroxyacrylamide]",< 1
8,"CCCCN1CCN(c2ccccc2/C=C/C(=O)NO)CC1 [Example I-177, (E)-3-(2-(4-butylpiperazin-1-yl)phenyl)-N-hydroxyacrylamide]",< 1
9,"CCCCCCN1CCN(c2ccccc2/C=C/C(=O)NO)CC1 [Example I-178, (E)-3-(2-(4-hexylpiperazin-1-yl)phenyl)-N-hydroxyacrylamide]",< 1
10,"Cn1ccnc1CN1CCN(c2ccccc2/C=C/C(=O)NO)CC1 [Example I-181, (E)-N-hydroxy-3-(2-(4-((1-methyl-1H-imidazol-2-yl)methyl)piperazin-1-yl)phenyl)acrylamide]",< 1
11,"O=C(/C=C/c1ccccc1N1CCN(CCCC(F)(F)F)CC1)NO [Example I-184, (E)-N-hydroxy-3-(2-(4-(4,4,4-trifluorobutyl)piperazin-1-yl)phenyl)acrylamide]",< 1
12,"Cc1csc(CN2CCN(c3ccccc3/C=C/C(=O)NO)CC2)n1 [Example I-185, (E)-N-hydroxy-3-(2-(4-((4-methylthiazol-2-yl)methyl)piperazin-1-yl)phenyl)acrylamide]",< 1
13,"CN(C)CC1(CN2CCN(c3ccccc3/C=C/C(=O)NO)CC2)CCCC1 [Example I-186, (E)-3-(2-(4-((1-((dimethylamino)methyl)cyclopentyl)methyl)piperazin-1-yl)phenyl)-N-hydroxyacrylamide]",< 1
14,"CN1CCC(C)(CN2CCN(c3ccccc3/C=C/C(=O)NO)CC2)CC1 [Example I-187, (E)-3-(2-(4-((1,4-dimethylpiperidin-4-yl)methyl)piperazin-1-yl)phenyl)-N-hydroxyacrylamide]",< 1
15,"O=C(/C=C/c1ccccc1N1CCN(Cc2cn3ccccc3n2)CC1)NO [Example I-188, (E)-N-hydroxy-3-(2-(4-(imidazo[1,2-a]pyridin-2-ylmethyl)piperazin-1-yl)phenyl)acrylamide]",< 1
16,"O=C(/C=C/c1ccccc1N1CCN(Cc2nc3ccccc3s2)CC1)NO [Example I-189, (E)-3-(2-(4-(benzo[d]thiazol-2-ylmethyl)piperazin-1-yl)phenyl)-N-hydroxyacrylamide]",< 1
17,"O=C(/C=C/c1ccccc1N1CCC(NCc2nccs2)CC1)NO [Example I-190, (E)-N-hydroxy-3-(2-(4-((thiazol-2-ylmethyl)amino)piperidin-1-yl)phenyl)acrylamide]",< 1
18,"O=C(/C=C/c1ccccc1N1CCC(NCc2ccccc2OC(F)F)CC1)NO [Example I-191, (E)-3-(2-(4-((2-(difluoromethoxy)benzyl)amino)piperidin-1-yl)phenyl)-N-hydroxyacrylamide]",< 1
19,"O=C(/C=C/c1ccccc1N1CCC(NCc2nc3ccccc3s2)CC1)NO [Example I-192, (E)-3-(2-(4-((benzo[d]thiazol-2-ylmethyl)amino)piperidin-1-yl)phenyl)-N-hydroxyacrylamide]",< 1
20,"CC(=O)N1CCN(c2ccccc2/C=C/C(=O)NO)CC1 [Example I-193, (E)-3-(2-(4-actylpiperazin-1-yl)phenyl)-N-hydroxyacrylamide]",< 1
21,"CSCC(=O)N1CCN(c2ccccc2/C=C/C(=O)NO)CC1 [Example I-194, (E)-N-hydroxy-3-(2-(4-(2-(methylthio)acetyl)piper-azin-1-yl)phenyl)acrylamide]",< 1
22,"COc1ccc(CC(=O)N2CCN(c3ccccc3/C=C/C(=O)NO)CC2)cc1 [Example I-195, (E)-N-hydroxy-3-(2-(4-(2-(4-methoxyphenyl)acetyl)pi-perazin-1-yl)phenyl)acrylamide]",< 1

# Next, values leading:
row,IC50 [µM],Compound
1,< 1,"O=C(/C=C/c1ccccc1N1CCC(NC(=O)C2CC(F)(F)C2)CC1)NO [Example I-149, (E)-3,3-difluoro-N-(1-(2-(3-(hydroxyamino)-3-oxoprop-1-en-1-yl)phenyl)piperidin-4-yl)cyclobutane-1-carboxamide]"
2,< 1,O=C(/C=C/c1ccccc1N1CCC(NC(=O)CC2CC2)CC1)NO [Example I-150]
3,< 1,"O=C(/C=C/c1ccccc1N1CCC(NC(=O)CC2CCS(=O)(=O)CC2)CC1)NO [Example I-151, (E)-3-(2-(4-(2-(1,1-dioxidotetrahydro-2H-thiopyran-4-yl)acetamido)piperidin-1-yl)phenyl)-N-hydroxyacrylamide]"
4,< 1,"O=C(/C=C/c1ccccc1N1CCC(NC(=O)CSc2ccccc2)CC1)NO [Example I-152, (E)-N-hydroxy-3-(2-(4-(2-(phenylthio)acetamido)piperidin-1-yl)phenyl)acrylamide]"
5,< 1,"CC(C)c1ccc(C(=O)NC2CCN(c3ccccc3/C=C/C(=O)NO)CC2)nc1 [Example I-154, (E)-N-(1-(2-(3-(hydroxyamino)-3-oxoprop-1-en-1-yl)phenyl)piperidin-4-yl)-5-isopropylpicolinamide]"
6,< 1,O=C(/C=C/c1ccccc1N1CCC(NC(=O)c2cc3ccccc3[nH]2)CC1)NO [Example I-155]
7,< 1,CSc1ccc(CC(=O)NC2CCN(c3ccccc3/C=C/C(=O)NO)CC2)cc1 [Example I-156]
8,< 1,"CC(C)CCC(=O)NC1CCN(c2ccccc2/C=C/C(=O)NO)CC1 [Example I-157, (E)-N-(1-(2-(3-(hydroxyamino)-3-oxoprop-1-en-1-yl)phenyl)piperidin-4-yl)-4-methylpentanamide]"
9,< 1,"Cc1nc(CC(=O)NC2CCN(c3ccccc3/C=C/C(=O)NO)CC2)c(C)s1 [Example I-158, (E)-3-(2-(4-(2-(2,5-dimethylthiazol-4-yl)acetamido)piperidin-1-yl)phenyl)-N-hydroxyacrylamide]"
10,< 1,O=C(/C=C/c1ccccc1N1CCC(NC(=O)c2ccoc2)CC1)NO [Example I-159]
11,< 1,O=C(/C=C/c1ccccc1N1CCC(NC(=O)c2ccc(-n3cccc3)nc2)CC1)NO [Example I-160]
12,< 1,O=C(/C=C/c1ccccc1N1CCC(NC(=O)c2ccc3[nH]nnc3c2)CC1)NO [Example I-161]
13,< 1,"CN(C)Cc1ccccc1CN1CCN(c2ccccc2/C=C/C(=O)NO)CC1 [Example I-162, (E)-3-(2-(4-(2-((dimethylamino)methyl)benzyl)piperazin-1-yl)phenyl)-N-hydroxyacrylamide]"
14,< 1,"O=C(/C=C/c1ccccc1N1CCN(Cc2ccc(F)cc2)CC1)NO [Example I-163, (E)-3-(2-(4-(4-fluorobenzyl)piperazin-1-yl)phenyl)-N-hydroxyacrylamide]"
15,< 1,"O=C(/C=C/c1ccccc1N1CCN(Cc2ccccc2F)CC1)NO [Example I-164, (E)-3-(2-(4-(2-fluorobenzyl)piperazin-1-yl)phenyl)-N-hydroxyacrylamide]"
16,< 1,"O=C(/C=C/c1ccccc1N1CCN(Cc2ccc(C(F)(F)F)nc2)CC1)NO [Example I-165, (E)-N-hydroxy-3-(2-(4-((6-(trifluoromethyl)pyridin-3-yl)methyl)piperazin-1-yl)phenyl)acrylamide]"
17,< 1,"O=C(/C=C/c1ccccc1N1CCN(CCCc2ccccc2)CC1)NO [Example I-166, (E)-N-hydroxy-3-(2-(4-(3-phenylpropyl)piperazin-1-yl)phenyl)acrylamide]"
18,< 1,"O=C(/C=C/c1ccccc1N1CCN(CC2CCOC2)CC1)NO (centres unmarked) [Example I-167, (E)-N-hydroxy-3-(2-(4-((tetrahydrofuran-3-yl)methyl)piperazin-1-yl)phenyl)acrylamide]"
19,< 1,"O=C(/C=C/c1ccccc1N1CCN(Cc2ccccn2)CC1)NO [Example I-168, (E)-N-hydroxy-3-(2-(4-(pyridin-2-ylmethyl)piperazin-1-yl)phenyl)acrylamide]"

# Reference: patent US10508077B2 (FORMA Therapeutics, Inc., priority 2015, dated 2019)
